# Source: patent US20230390228A1, “TREATMENT METHODS USING GHB” (Jazz Pharmaceuticals Ireland Limited, priority 2020, published 2023)
# How the values were obtained:
# [1] = target: GABA-ketoglutarate transaminase (Homo sapiens, UniProt P80404); details: cited from earlier work
# [2] = test system: narcolepsy; details: in vivo; cited from earlier work
# [3] = test system: patients with fibromyalgia; test: Randomized, double-blind, placebo-controlled fibromyalgia study (Example 1), analysed by baseline slow wave sleep (Example 2); type: in vivo, human; details: for response to oxybate (dose dependence) / change from baseline in Fibromyalgia Impact Questionnaire (FIQ) / change from baseline in pain visual analog scale (PVAS): FIG. 1; for change from baseline in Fibromyalgia Impact Questionnaire (FIQ) / change from baseline in pain visual analog scale (PVAS): Xyrem 4.5 g or 6 g/night vs placebo, 8 weeks
# Description: This study was a randomized, double-blind, placebo-controlled, parallel group study in subjects diagnosed with fibromyalgia.
# The ACR criteria included: presence of widespread pain for more than 3 months in all 4 quadrants of the body as well as along the spine and the elicitation of pain at 11 or more out of 18 anatomically defined tender points upon palpation with a force of 4 kg.
# Subjects underwent screening assessments. Subjects who met the eligibility criteria underwent a drug withdrawal and washout period during which time pain medications and any treatment for fibromyalgia were gradually withdrawn. At the end of the 2-week baseline assessment period, subjects who continued to meet inclusion/exclusion criteria and who reported an average pain score above 4 (on a visual analog scale [VAS] of 0 to 10) during the last week of the baseline period were randomized to 1 of 3 treatment groups: Xyrem 4.5 g/night, Xyrem 6 g/night, or placebo (half of the subjects randomized to placebo received placebo matching 4.5 g and the other half received placebo matching 6 g).
# Test Product, Dose, Mode of Administration, and Duration of Treatment: • Sodium oxybate 4.5 g, oral solution (9 mL) taken in 2 equally divided doses (4.5 mL added to 2 oz water) each night for 8 weeks. • Sodium oxybate 6 g, oral solution (12 mL) taken in 2 equally divided doses (6 mL added to 2 oz of water) each night for 8 weeks.
# Reference Therapy, Dose and Mode of Administration: • Placebo (sodium citrate solution) 4.5 g, oral solution (9 mL) matching volume of Xyrem 4.5 g, taken in 2 equally divided doses (4.5 mL added to 2 oz water) each night. • Placebo (sodium citrate solution) 6 g, oral solution (12 mL) matching volume of Xyrem 6 g, taken in 2 equally divided doses (6 mL added to 2 oz water) each night.
# The primary efficacy parameter was a binary composite parameter for the treatment of fibromyalgia syndrome. The proportion of subjects in each treatment group that met all 3 of the following response criteria was compared to assess the efficacy of Xyrem in response to fibromyalgia syndrome. • Pain Severity: as assessed by pain VAS data recorded 3 time a day by the subject in an electronic diary (eDiary). For pain VAS, a response was defined as a reduction in average pain of 20% or greater from baseline to Week 8. • Functionality (Fibromyalgia Impact Questionnaire [FIQ]): Change from baseline to a study visit was assessed. A response was defined as a reduction of 20% or greater in FIQ total score from baseline to Week 8. • Patient Global Impression of Change (PGIc): The subject's perception of the overall improvement in their fibromyalgia symptoms was assessed by means of the PGIc questionnaire completed at the end of study. A response to treatment was defined as a response of “Very much better” or “Much better” on the PGIc.
# Severity of Pain: the mean change from baseline to a study visit in pain severity (VAS pain). The proportion of responders for pain, defined as the proportion of subjects who had at least 20% reduction in pain severity from baseline to a study visit.
# Fibromyalgia Impact Questionnaire: The mean change from baseline to a study visit in FIQ total score and subscale scores. The proportion of FIQ responders, defined as the proportion of subjects who had at least a 20% reduction in FIQ total score from baseline to a study visit.
# Subjective Assessments of Sleep and Fatigue: • Daytime Sleepiness: the mean change from baseline to a study visit in the Epworth Sleepiness Scale (ESS). • Sleep Patterns: the mean change from baseline to a study visit in the Jenkins Scale (JS). • Fatigue: the mean change from baseline to a study visit in the fatigue VAS score. • Functional Outcomes of Sleep Questionnaire (FOSQ): the mean changes from baseline to a study visit in FOSQ total score and subscale scores. […]
# [4] = test system: brain; details: in vivo; cited from earlier work
# [5] = test system: narcolepsy patients with cataplexy; details: cited from earlier work
# [6] = patients with less than about 1% slow wave sleep at baseline or screening
# [7] = patients with ≥20% slow wave sleep prior to treatment
# Sequence of GABA-ketoglutarate transaminase (P80404 29-500): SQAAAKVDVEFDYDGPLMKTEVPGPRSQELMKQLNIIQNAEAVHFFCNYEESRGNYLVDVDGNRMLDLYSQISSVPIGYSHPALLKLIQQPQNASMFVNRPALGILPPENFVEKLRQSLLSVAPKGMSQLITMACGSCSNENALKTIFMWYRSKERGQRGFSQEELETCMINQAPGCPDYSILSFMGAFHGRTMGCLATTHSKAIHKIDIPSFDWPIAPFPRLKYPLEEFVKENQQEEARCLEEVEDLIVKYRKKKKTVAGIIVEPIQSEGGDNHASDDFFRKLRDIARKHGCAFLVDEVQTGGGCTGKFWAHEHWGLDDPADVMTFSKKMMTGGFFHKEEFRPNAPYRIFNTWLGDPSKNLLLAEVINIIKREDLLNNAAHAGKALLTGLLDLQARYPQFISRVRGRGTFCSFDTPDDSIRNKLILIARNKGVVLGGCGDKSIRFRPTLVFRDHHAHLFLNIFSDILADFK
smiles,measurement,setting,value
"O=C(O)CCCO [oxybate, Gamma-hydroxybutyrate]",inhibition of GABA-ketoglutarate transaminase,[1],inhibition
same,REM latency,[2],decreases
same,REM sleep,[2],increases
same,"signs and symptoms of narcolepsy (daytime sleepiness, cataplexy, sleep paralysis, hypnagogic hallucinations)",[2],substantially reduces
same,sleep apnea,[2],reduces
same,total sleep time,[2],increases
same,"oxybate response (FIQ, Pain VAS, Fatigue VAS, TPC)","[3]; low baseline slow wave sleep (quartile 1), FIG. 3A-3D",improved oxybate response
same,response to oxybate (dose dependence),[3]; [6],dose-dependent response
same,change from baseline in Fibromyalgia Impact Questionnaire (FIQ),[3]; [6],significant improvements
same,change from baseline in pain visual analog scale (PVAS),[3]; [6],significant improvements
same,response to oxybate (dose dependence),[3]; [7],did not exhibit a dose-dependent response
same,change in FIQ from baseline,"[3]; slow wave sleep quartile 1 (<13.5 min stage 3/4 sleep at baseline), 4.5 g and 6.0 g Xyrem vs placebo, FIG. 3A",significant improvements
same,change in Fatigue VAS from baseline,"[3]; slow wave sleep quartile 1 (<13.5 min stage 3/4 sleep at baseline), 4.5 g and 6.0 g Xyrem vs placebo, FIG. 3C",significant improvements
same,change in Tender Points Count (TPC) from baseline,"[3]; slow wave sleep quartile 1 (<13.5 min stage 3/4 sleep at baseline), 4.5 g and 6.0 g Xyrem vs placebo, FIG. 3D",significant improvements
same,brain acetylcholine,[4],increases
same,brain dopamine,[4],increases
same,glucose utilization in the brain,[4],depression
O=C(O)CCCO [sodium oxybate],consolidation of REM sleep,[5],increased
same,duration of slow wave sleep,[5],increased
same,number of sleep arousals,[5],decreased
same,change from baseline in Fibromyalgia Impact Questionnaire (FIQ),[3]; [7],did not differ significantly
same,change from baseline in pain visual analog scale (PVAS),[3]; [7],did not differ significantly
